Experimental data as given in patent publication US9663473B2 (Actelion Pharmaceuticals Ltd, priority 2013, dated 2017).
Structures can show the parent of a compound that is named as a salt.

Target: T1, recombinant human ALX receptor (Homo sapiens, UniProt P25090)
T1 construct: expressed in transfected cells; host or cells: HEK293 (HEK293-hALXR-Gα16)
T1 sequence (P25090 1-351): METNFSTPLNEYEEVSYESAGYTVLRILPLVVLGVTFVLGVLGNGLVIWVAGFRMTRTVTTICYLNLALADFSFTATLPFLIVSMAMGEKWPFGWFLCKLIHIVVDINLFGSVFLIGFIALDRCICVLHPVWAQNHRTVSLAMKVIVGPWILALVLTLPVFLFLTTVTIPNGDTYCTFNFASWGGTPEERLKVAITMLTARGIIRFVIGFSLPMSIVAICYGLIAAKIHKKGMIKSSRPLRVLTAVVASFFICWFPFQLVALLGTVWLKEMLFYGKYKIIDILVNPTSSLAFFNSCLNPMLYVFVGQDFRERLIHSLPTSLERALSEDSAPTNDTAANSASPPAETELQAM
Assay: Intracellular calcium measurements (FLIPR), ALX receptor agonistic activity
Assay type: cell-based
Settings: HEK293-hALXR-Gα16 cells, Fluo-4 calcium signal, normalized to WKYMVm 10 nM
Method in brief: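 Agonist-induced calcium flux was read by FLIPR (488/540 nm) as baseline-subtracted peak emission, expressed relative to WKYMVm at 10 nM final. Cells used: HEK293-hALXR-Gα16, dye-loaded 60 min at 37° C. with 1 μM Fluo-4 AM before compound dose-response addition.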

| Structure (SMILES) | EC50 [nM] |
| --- | --- |
| COc1ccc(CC(NC(=O)Nc2cc(-c3ccc(Cl)cc3)nn2C)c2nc3ccccc3[nH]2)cc1 (stereo not shown) [Example 403, 1-(1-(1H-Benzo[d]imidazol-2-yl)-2-(4-methoxyphenyl)ethyl)-3-(3-(4-chlorophenyl)-1-methyl-1H-pyrazol-5-yl)urea] | 118 |
| COc1ccc(CC(NC(=O)Nc2ccnn2-c2ccc(C)cc2)c2nc3ccccc3[nH]2)cc1 (stereo not shown) [Example 420, 1-(1-(1H-benzo[d]imidazol-2-yl)-2-(4-methoxyphenyl)ethyl)-3-(1-(p-tolyl)-1H-pyrazol-5-yl)urea] | 207 |
| COc1ccc(C[C@@H](NC(=O)NC2(c3ccc(C(F)(F)F)cc3)CC2)c2nc3ccccc3[nH]2)cc1 [Example 358, (R)-1-(1-(1H-Benzo[d]imidazol-2-yl)-2-(4-methoxyphenyl)ethyl)-3-(1-(4-(trifluoromethyl)phenyl)cyclopropyl)urea] | 176 |
| COc1ccc(C[C@@H](NC(=O)NCCc2cccnc2)c2nc3ccccc3[nH]2)cc1 [Example 280, (R)-1-(1-(1H-Benzo[d]imidazol-2-yl)-2-(4-methoxyphenyl)ethyl)-3-(2-(pyridin-3-yl)ethyl)urea] | 250 |
| COc1ccc(CC(NC(=O)N[C@H]2CC[C@](C)(O)CC2)c2nc3ccccc3[nH]2)c(F)c1 (mixture of isomers) [Example 234, 1-(1-(1H-Benzo[d]imidazol-2-yl)-2-(2-fluoro-4-methoxyphenyl)ethyl)-3-(trans-4-hydroxy-4-methylcyclohexyl)urea] | 5.1 |
| COc1ccc(C[C@@H](NC(=O)N[C@@H]2CNC[C@@H]2F)c2nc3ccccc3[nH]2)cc1 (relative stereo) [Example 185, 1-((R)-1-(1H-Benzo[d]imidazol-2-yl)-2-(4-methoxyphenyl)ethyl)-3-((3R*,4S*)-4-fluoropyrrolidin-3-yl)urea] | 143 |
| COc1ccc(C[C@@H](NC(=O)NCC2CCc3ccccc32)c2nc3ccccc3[nH]2)cc1 (stereo partly drawn) [Example 72, 1-((R)-1-(1H-Benzo[d]imidazol-2-yl)-2-(4-methoxyphenyl)ethyl)-3-((2,3-dihydro-1H-inden-1-yl)methyl)urea] | 67 |
| COc1ccc(C[C@@H](NC(=O)N[C@@H](C)c2ccc(Br)cc2)c2nc3ccccc3[nH]2)cc1 [Example 331, 1-((R)-1-(1H-Benzo[d]imidazol-2-yl)-2-(4-methoxyphenyl)ethyl)-3-((S)-1-(4-bromophenyl)ethyl)urea] | 146 |
| COc1ccc(CC(NC(=O)N[C@H]2CC[C@](C)(O)CC2)c2nc3ccc(F)cc3[nH]2)c(F)c1 (mixture of isomers) [Example 246, 1-(1-(6-Fluoro-1H-benzo[d]imidazol-2-yl)-2-(2-fluoro-4-methoxyphenyl)ethyl)-3-(trans-4-hydroxy-4-methylcyclohexyl)urea] | 1.8 |
| COC(=O)c1ccc(C2(NC(=O)N[C@H](Cc3ccc(OC)cc3)c3nc4ccccc4[nH]3)CC2)cc1 [Example 342, (R)-Methyl 4-(1-(3-(1-(1H-benzo[d]imidazol-2-yl)-2-(4-methoxyphenyl)ethyl)ureido)cyclopropyl)benzoate] | 277 |
| O=C(NC(Cc1ccc(Br)cc1F)c1nc2ccccc2[nH]1)NC12CCC(O)(CC1)CC2 (stereo not shown) [Example 254, 1-(1-(1H-Benzo[d]imidazol-2-yl)-2-(4-bromo-2-fluorophenyl)ethyl)-3-(4-hydroxybicyclo[2.2.2]octan-1-yl)urea] | 21 |
| COc1ccc(C[C@@H](NC(=O)N[C@H](C)c2ccc(F)cc2)c2nc3ccccc3[nH]2)cc1 [Example 320, 1-((R)-1-(1H-Benzo[d]imidazol-2-yl)-2-(4-methoxyphenyl)ethyl)-3-((R)-1-(4-fluorophenyl)ethyl)urea] | 185 |
| COc1ccc(C[C@@H](NC(=O)NC23CCC(O)(CC2)CC3)c2nc3ccccc3[nH]2)cc1 [Example 166, (R)-1-(1-(1H-Benzo[d]imidazol-2-yl)-2-(4-methoxyphenyl)ethyl)-3-(4-hydroxybicyclo[2.2.2]octan-1-yl)urea] | 2.1 |
| COc1ccc(C[C@@H](NC(=O)NCCC2CCN(C(C)=O)CC2)c2nc3ccccc3[nH]2)cc1 [Example 159, (R)-1-(1-(1H-Benzo[d]imidazol-2-yl)-2-(4-methoxyphenyl)ethyl)-3-(2-(1-acetylpiperidin-4-yl)ethyl)urea] | 876 |
| COc1ccc(C[C@@H](NC(=O)NCc2ccccc2C)c2nc3ccccc3[nH]2)cc1 [Example 202, (R)-1-(1-(1H-Benzo[d]imidazol-2-yl)-2-(4-methoxyphenyl)ethyl)-3-(2-methylbenzyl)urea] | 602 |
| CCOC(=O)[C@@H]1CCCC[C@H]1NC(=O)N[C@H](Cc1ccc(OC)cc1)c1nc2ccccc2[nH]1 (relative stereo) [Example 29, trans-Ethyl 2-(3-((R)-1-(1H-benzo[d]imidazol-2-yl)-2-(4-methoxyphenyl)ethyl)ureido)cyclohexanecarboxylate (ent-1)] | 56 |

| Structure (SMILES) | EC50 [nM] |
| --- | --- |
| O=C(N[C@H](Cc1ccc(Br)cc1)c1nc2ccc(F)cc2[nH]1)NC12CCC(O)(CC1)CC2 [Example 195, (R)-1-(2-(4-Bromophenyl)-1-(6-fluoro-1H-benzo[d]imidazol-2-yl)ethyl)-3-(4-hydroxybicyclo[2.2.2]octan-1-yl)urea] | 1.1 |
| CCOC(=O)[C@@H]1CCCC[C@@H]1NC(=O)N[C@H](Cc1ccc(OC)cc1)c1nc2ccccc2[nH]1 (relative stereo) [Example 28, (1R*,2S*)-Ethyl 2-(3-((R)-1-(1H-benzo[d]imidazol-2-yl)-2-(4-methoxyphenyl)ethyl)ureido)cyclohexanecarboxylate] | 9.2 |
| Cc1ccc2nc([C@@H](Cc3ccc(Br)cc3)NC(=O)N[C@H]3CC[C@H](O)CC3)[nH]c2c1 [Example 221, 1-((R)-2-(4-Bromophenyl)-1-(6-methyl-1H-benzo[d]imidazol-2-yl)ethyl)-3-(trans-4-hydroxycyclohexyl)urea] | 4 |
| COc1ccc(CC(NC(=O)Nc2ccnn2-c2ccc(OC)cc2)c2nc3ccccc3[nH]2)cc1 (stereo not shown) [Example 406, 1-(1-(1H-benzo[d]imidazol-2-yl)-2-(4-methoxyphenyl)ethyl)-3-(1-(4-methoxyphenyl)-1H-pyrazol-5-yl)urea] | 182 |
| COc1ccc(C[C@@H](NC(=O)NCc2ccccc2C#N)c2nc3ccccc3[nH]2)cc1 [Example 211, (R)-1-(1-(1H-Benzo[d]imidazol-2-yl)-2-(4-methoxyphenyl)ethyl)-3-(2-cyanobenzyl)urea] | 167 |
| COc1ccc(C[C@@H](NC(=O)NCc2ccn(-c3ccccc3)n2)c2nc3ccccc3[nH]2)cc1 [Example 284, (R)-1-(1-(1H-Benzo[d]imidazol-2-yl)-2-(4-methoxyphenyl)ethyl)-3-((1-phenyl-1H-pyrazol-3-yl)methyl)urea] | 353 |
| COc1ccc(C[C@@H](NC(=O)NC(C)(C)c2ccccc2)c2nc3ccccc3[nH]2)cc1 [Example 350, (R)-1-(1-(1H-Benzo[d]imidazol-2-yl)-2-(4-methoxyphenyl)ethyl)-3-(2-phenylpropan-2-yl)urea] | 288 |
| COc1ccc(C[C@@H](NC(=O)NC2(c3ccc(Cl)cc3)CC2)c2nc3ccccc3[nH]2)cc1 [Example 355, (R)-1-(1-(1H-Benzo[d]imidazol-2-yl)-2-(4-methoxyphenyl)ethyl)-3-(1-(4-chlorophenyl)cyclopropyl)urea] | 157 |
| COc1ccc(CC(NC(=O)NC2CC(C)(C)NC(C)(C)C2)c2nc3ccccc3[nH]2)cc1F (stereo not shown) [Example 176, 1-(1-(1H-Benzo[d]imidazol-2-yl)-2-(3-fluoro-4-methoxyphenyl)ethyl)-3-(2,2,6,6-tetramethylpiperidin-4-yl)urea] | 58 |
| O=C(NC(Cc1ccc(Br)c(F)c1)c1nc2ccccc2[nH]1)NC12CCC(O)(CC1)CC2 (stereo not shown) [Example 230, 1-(1-(1H-Benzo[d]imidazol-2-yl)-2-(4-bromo-3-fluorophenyl)ethyl)-3-(4-hydroxybicyclo[2.2.2]octan-1-yl)urea] | 21 |
| COc1ccc(CC(NC(=O)N[C@H]2CC[C@H](O)CC2)c2nc3ccccc3[nH]2)cc1F (relative stereo) [Example 167, 1-(1-(1H-Benzo[d]imidazol-2-yl)-2-(3-fluoro-4-methoxyphenyl)ethyl)-3-(trans-4-hydroxycyclohexyl)urea] | 9.5 |
| COc1ccc(C[C@@H](NC(=O)NCc2cccnc2N2CCOCC2)c2nc3ccccc3[nH]2)cc1 [Example 206, (R)-1-(1-(1H-Benzo[d]imidazol-2-yl)-2-(4-methoxyphenyl)ethyl)-3-((2-morpholinopyridin-3-yl)methyl)urea] | 144 |
| COc1ccc(C[C@@H](NC(=O)NCc2cccc(C(F)(F)F)c2Cl)c2nc3ccccc3[nH]2)cc1 [Example 273, (R)-1-(1-(1H-Benzo[d]imidazol-2-yl)-2-(4-methoxyphenyl)ethyl)-3-(2-chloro-3-(trifluoromethyl)benzyl)urea] | 234 |
| COc1ccc(C[C@@H](NC(=O)NCc2ccccc2CN2CCOCC2)c2nc3ccccc3[nH]2)cc1 [Example 62, (R)-1-(1-(1H-Benzo[d]imidazol-2-yl)-2-(4-methoxyphenyl)ethyl)-3-(2-(morpholinomethyl)benzyl)urea dihydrochloride] | 48 |
| COC(=O)C1CCCC(NC(=O)N[C@H](Cc2ccc(OC)cc2)c2nc3ccccc3[nH]2)C1 (stereo partly drawn) [Example 228, Methyl 3-(3-((R)-1-(1H-benzo[d]imidazol-2-yl)-2-(4-methoxyphenyl)ethyl)ureido)cyclohexanecarboxylate] | 11 |
